Laboratory results published in paper PMC11582101, “Unlocking the potential: unveiling tyrphostins with Michael-reactive cyanoacrylate motif as promising inhibitors of human 5-lipoxygenase” (Pflugers Archiv, 2024).
pIC50: −log10 of the molar value. “Also recorded” adds a separate entry of the source. Like-named read-outs stand apart in the source and are kept apart here.

How the values were obtained:
[1] = molecular target: T1, 12-LO (Homo sapiens, UniProt P18054); experiment: 12-HETE formation in platelets; conditions: 20 µM AA, 2.5 µM A23187, n = 3–6
T1 sequence (P18054 1-663): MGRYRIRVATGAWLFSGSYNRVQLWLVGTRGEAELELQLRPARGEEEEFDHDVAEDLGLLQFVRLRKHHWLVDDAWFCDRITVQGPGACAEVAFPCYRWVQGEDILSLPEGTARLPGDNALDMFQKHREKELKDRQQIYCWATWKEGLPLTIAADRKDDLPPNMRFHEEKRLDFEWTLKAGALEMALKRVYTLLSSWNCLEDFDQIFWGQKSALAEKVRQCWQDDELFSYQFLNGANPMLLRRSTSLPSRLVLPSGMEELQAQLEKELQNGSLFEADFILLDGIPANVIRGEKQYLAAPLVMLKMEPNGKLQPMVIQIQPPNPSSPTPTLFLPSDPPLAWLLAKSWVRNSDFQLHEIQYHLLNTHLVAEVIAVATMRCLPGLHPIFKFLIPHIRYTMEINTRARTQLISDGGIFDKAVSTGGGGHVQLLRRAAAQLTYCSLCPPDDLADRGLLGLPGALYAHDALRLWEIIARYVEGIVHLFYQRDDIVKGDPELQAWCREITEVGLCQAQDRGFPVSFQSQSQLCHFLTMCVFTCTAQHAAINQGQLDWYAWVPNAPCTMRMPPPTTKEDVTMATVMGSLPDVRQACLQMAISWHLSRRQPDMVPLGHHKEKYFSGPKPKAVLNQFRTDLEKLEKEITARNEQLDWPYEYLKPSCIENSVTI

[2] = test system: 15-LO; experiment: 15-HETE formation in intact PMNL; conditions: for pIC50: read-out: IC50 for inhibition of 15-HETE formation, PMNL
[3] = molecular target: T2, 5-LO (Homo sapiens, UniProt P09917); experiment: 5-LO product formation in intact PMNL
T2 sequence (P09917 1-674): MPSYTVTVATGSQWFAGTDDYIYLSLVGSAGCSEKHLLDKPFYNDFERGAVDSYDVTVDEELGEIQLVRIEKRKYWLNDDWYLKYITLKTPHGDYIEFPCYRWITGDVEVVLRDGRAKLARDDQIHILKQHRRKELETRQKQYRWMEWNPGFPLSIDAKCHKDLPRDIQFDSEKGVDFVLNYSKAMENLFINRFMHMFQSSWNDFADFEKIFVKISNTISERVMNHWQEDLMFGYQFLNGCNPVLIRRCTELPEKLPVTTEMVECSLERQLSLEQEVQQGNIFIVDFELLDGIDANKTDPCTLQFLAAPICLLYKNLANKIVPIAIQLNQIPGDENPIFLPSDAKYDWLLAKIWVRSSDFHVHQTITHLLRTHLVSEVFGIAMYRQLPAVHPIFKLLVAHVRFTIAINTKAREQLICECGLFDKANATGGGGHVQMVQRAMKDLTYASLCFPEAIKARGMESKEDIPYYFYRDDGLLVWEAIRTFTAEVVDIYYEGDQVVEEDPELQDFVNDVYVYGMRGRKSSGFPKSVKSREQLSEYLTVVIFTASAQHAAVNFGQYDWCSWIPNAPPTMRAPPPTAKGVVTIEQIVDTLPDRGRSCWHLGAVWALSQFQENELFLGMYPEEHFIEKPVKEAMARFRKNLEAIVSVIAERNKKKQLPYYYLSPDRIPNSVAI

[4] = molecular target: T3, r5-LO_WT (Homo sapiens, UniProt P09917); experiment: Covalent inhibitor binding by mass spectrometry, r5-LO_WT; conditions: 100 µM compound; for inhibitor adducts to r5-LO_WT detected by mass spectrometry: 20 µM protein, at least 1 h RT; for mass shift of inhibitor adduct: 20 µM r5-LO_WT
T3 construct: made in house; host or cells: E. coli BL21 (DE3)
T3 sequence (P09917 1-674): T2 sequence (P09917 1-674)

[5] = test system: U2OS cells; conditions: human, 10 µM
[6] = molecular target: T4, r5-LO_4C (Homo sapiens, UniProt P09917, C160S/C301S/C417S/C419S); experiment: Covalent inhibitor binding by mass spectrometry, r5-LO_4C; conditions: 20 µM protein, 100 µM compound, at least 1 h RT
T4 construct: made in house; host or cells: E. coli BL21 (DE3)
T4 sequence (P09917 2-674 C160S/C301S/C417S/C419S limits assumed): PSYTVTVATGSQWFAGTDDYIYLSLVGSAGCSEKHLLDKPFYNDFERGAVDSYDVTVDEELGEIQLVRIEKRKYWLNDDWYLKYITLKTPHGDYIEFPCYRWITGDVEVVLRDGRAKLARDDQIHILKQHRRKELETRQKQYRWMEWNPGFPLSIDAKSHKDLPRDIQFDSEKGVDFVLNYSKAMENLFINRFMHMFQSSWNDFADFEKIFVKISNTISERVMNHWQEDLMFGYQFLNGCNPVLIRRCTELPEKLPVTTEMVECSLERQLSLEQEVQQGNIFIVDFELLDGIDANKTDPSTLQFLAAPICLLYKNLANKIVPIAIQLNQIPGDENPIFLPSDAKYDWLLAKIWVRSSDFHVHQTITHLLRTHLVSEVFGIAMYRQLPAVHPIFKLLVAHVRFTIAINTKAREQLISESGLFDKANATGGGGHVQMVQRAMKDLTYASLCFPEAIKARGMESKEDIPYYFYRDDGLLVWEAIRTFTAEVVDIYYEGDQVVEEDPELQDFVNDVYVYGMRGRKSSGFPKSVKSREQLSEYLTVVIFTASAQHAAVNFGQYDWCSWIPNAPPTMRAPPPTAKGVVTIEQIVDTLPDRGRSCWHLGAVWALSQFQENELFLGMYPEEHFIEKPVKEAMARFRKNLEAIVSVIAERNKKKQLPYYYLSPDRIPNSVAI
Protocol: r5-LO_WT or r5-LO_4C protein was diluted to 20 µM in gel filtration buffer; 100 µM of compound was added and incubated for a minimum time of 1 h at RT before 10 µL was injected onto a 1260 Infinity HPLC (Agilent, Santa Clara, USA) using a C3 column with a flow rate of 0.4 mL/min as published before. The HPLC was coupled with a 6230 electrospray ionization TOF LC/MS detector (Agilent, Santa Clara, CA, USA). Data were acquired using the Agilent MassHunter Acquisition software and processed with the Agilent Mass Hunter BioConfirm software (B.08.00). Peak intensities were calculated and normalized to the highest count of each data set with GraphPad Prism version 7.05 (GraphPad Software, Boston, MA, USA).
Fig. 3 Mass spectra of r5-LO_WT or r5-LO_4C incubated with inhibitors (blue or red line). 20 µM r5-LO_WT (left) or r5-LO_4C (right) was incubated with 100 µM degrasyn (A), AG556 (B), tyrphostin A9 (C), AG879 (D), or CAPE (E) at RT for at least 1 h before analysis. Measurement was performed using an Agilent 1260 Infinity HPLC with an Agilent 6230 TOF LC/MS detector. Obtained data were processed using Mass Hunter BioConfirm (B.08.00), and resulted counts were normalized to the highest peak of the spectrum

[7] = molecular target: T2, 5-LO; experiment: 5-LO activity in PMNL homogenates; format: biochemical; design: endogenous in cells; host or cells: human PMNL (polymorphonuclear leukocytes); conditions: sonicated PMNL, 20 µM AA
Protocol: Samples were kept on ice, and 1 mM ATP or 1 mM ATP/1 mM GSH was added. The inhibitors were preincubated with the cell homogenate on ice for 15 min before heating the samples at 37 °C for 30 s. […] Solid phase extraction and UPLC analysis were performed as described above.

[8] = test system: U2OS cells; experiment: Multiplex live-cell high-content assay; conditions: for normalized healthy cell count: up to 48 h, normalized to DMSO
[9] = intact PMNL, 20 µM AA, 2.5 µM A23187, (95% CI), n = 3–6
[10] = IC50 for inhibition of 5-LO product formation, PMNL, intact PMNL, 20 µM AA, 2.5 µM A23187, (95% CI), n = 3–6

| Molecule | IC50 for inhibition of 12-HETE formation, platelets [1] | IC50 for inhibition of 15-HETE formation, PMNL [2, 9] | pIC50 [3] | pIC50 [2, 9] | further results |
| --- | --- | --- | --- | --- | --- |
| N#C/C(=C\c1ccc(O)c(O)c1)C(N)=O [(E)-AG99] | no inhibition | no inhibition | 5.14 | – | – |
| N#C/C(=C\c1ccc(O)c(O)c1)C(=O)NCCCCc1ccccc1 [AG556] | no inhibition | – | 6.47 | 5.29 | inhibitor adducts to r5-LO_WT detected by mass spectrometry [4]: covalently bound to up to four cysteines; also recorded: four peaks; mass shift of inhibitor adduct [4]: 336 Da; normalized healthy cell count [5]: around 75%; inhibitor adducts to r5-LO_4C detected by mass spectrometry [6]: only one adduct |
| CC(C)(C)c1cc(C=C(C#N)C#N)cc(Br)c1O [AG1024] | – | no inhibition | 5.51 | – | – |
| O=C(/C=C/c1ccc(O)c(O)c1)OCCc1ccccc1 [CAPE, caffeic acid phenethyl ester] | no inhibition | – | 6.64 | 5.00 | inhibitor adducts to r5-LO_WT detected by mass spectrometry [4]: did not detect mass shifts; normalized healthy cell count [5]: around 75% |
| CCC[C@H](NC(=O)/C(C#N)=C/c1cccc(Br)n1)c1ccccc1 [Degrasyn] | no inhibition | moderate inhibition | 6.21 | 5.10 | inhibitor adducts to r5-LO_WT detected by mass spectrometry [4]: covalently bound to up to four cysteines; also recorded: four peaks; mass shift of inhibitor adduct [4]: 384 Da; normalized healthy cell count [5]: below 50%; increase of mitochondrial mass ([5]; 48 h): more than 50%; pIC50 ([7]; with 1 mM GSH, read-out: IC50 5-LO, PMNL homogenates + GSH): 5.38; pIC50 ([7]; without GSH, read-out: IC50 5-LO, PMNL homogenates): 6.05; phenotypic properties (tubulin, mitochondrial mass, membrane permeability, cell morphology) ([8]; 10 µM, 48 h): additional effects on microtubules and on membrane integrity; inhibitor adducts to r5-LO_4C detected by mass spectrometry [6]: only one adduct |
| CC(C)c1cc(/C=C(\C#N)C(=O)NCCCc2ccccc2)cc(C(C)C)c1O [SU1498] | – | did not show inhibition; also recorded: no inhibition | 6.12 | – | – |
| CN[C@@H]1C[C@H]2O[C@@](C)([C@@H]1OC)n1c3ccccc3c3c4c(c5c6ccccc6n2c5c31)C(=O)NC4 [Staurosporine] | – | – | – | – | normalized healthy cell count ([8]; 10 µM inhibitor): about 25% |
| N#CC(C#N)=Cc1ccc(O)cc1 [Tyrphostin 8] | – | no inhibition | – | – | IC50 for inhibition of 5-LO product formation, PMNL [3, 9]: no inhibition; IC50 for inhibition of 5-LO product formation, PMNL ([3]; intact PMNL, 20 µM AA, 2.5 µM A23187, (95% CI), n = 3–6, listed as tyrphostin 8): failed to inhibit |
| CC(C)(C)c1cc(C=C(C#N)C#N)cc(C(C)(C)C)c1O [Tyrphostin A9] | no inhibition | no inhibition | 5.96 | – | inhibitor adducts to r5-LO_WT detected by mass spectrometry [4]: did not detect mass shifts; normalized healthy cell count ([8]; 1 µM inhibitor): 57%; normalized healthy cell count ([8]; 1 µM inhibitor, listed as tyrphostin A9): about 50%; normalized healthy cell count ([8]; 10 µM inhibitor): below 50% |
| AG825 | – | – | – | – | IC50 for inhibition of 15-HETE formation, PMNL [2]: no inhibition |

The next lines start with results.

| IC50 for inhibition of 12-HETE formation, platelets [1] | IC50 for inhibition of 15-HETE formation, PMNL [2, 9] | pIC50 [3] | pIC50 [2, 9] | Molecule | further results |
| --- | --- | --- | --- | --- | --- |
| no inhibition | no inhibition | 5.27 | – | N#CC(C#N)=Cc1ccc(O)c(O)c1 [AG18] | – |
| – | no inhibition | – | – | N#C/C(=C\c1ccc(O)c(O)c1)C(=O)O [AG30] | IC50 for inhibition of 5-LO product formation, PMNL [3, 9]: no inhibition |
| no inhibition | no inhibition | 5.10 | – | N#CC(C#N)=Cc1cc(O)c(O)c(O)c1 [AG82] | – |
| – | no inhibition | – | – | N#CC(C#N)=Cc1ccc([N+](=O)[O-])c(O)c1 [AG126] | IC50 for inhibition of 5-LO product formation, PMNL [3, 9]: no inhibition |
| no inhibition | – | – | < 4.60 | N#C/C(=C\c1ccc(O)c(O)c1)C(=O)NCc1ccccc1 [AG490] | pIC50 [3, 10]: 5.96 |
| no inhibition | – | 6.07 | 4.66 | N#C/C(=C\c1ccc(O)c(O)c1)C(=O)Nc1ccccc1 [AG494] | – |
| – | no inhibition | < 4.52 | – | COc1ccc(/C=C(/C#N)c2cccnc2)cc1OC [RG13022] | – |
| – | no inhibition | 5.23 | – | N#C/C(=C/c1cc(Cl)cc(Cl)c1)c1cccnc1 [RG14620] | – |
| – | moderate inhibition | – | 4.74 | C[C@H](NC(=O)/C(C#N)=C/c1cccc(Br)n1)c1ccccc1 [WP1066] | pIC50 [3, 10]: 6.03 |
